Experimental data: publication PMC6423038, “Deferiprone: Pan-selective Histone Lysine Demethylase Inhibition Activity and Structure Activity Relationship Study” (Scientific Reports, 2019)

Legend:
VERO = assay: Cell viability assay (MTS), antiproliferative activity; type: cell-based; conditions: Chlorocebus sabaeus, 72 h
Description: (§1) To preliminarily profile the bioactivity of these compounds, we adopted a streamlined approach which involved screening against KDM6A at two concentrations and evaluating antiproliferative activity against three representative cell lines – MCF-7 (ER(+) BCa), MDA-MB-231 (TNBC BCa) and Vero (a non-transformed cell line as control).
(§2) The In vitro proliferation assay was performed as reported previously[15],[16]. Detailed description of the protocol used is included in the Supplementary Information.
(§3) Cell Viability Assay. All cell lines were purchased form ATCC (Manassas, VA), and they were routinely cultured in different media recommended by the supplier. MCF-7 cells were cultured in non-phenol red DMEM (Corning, Manassas, VA) fortified with 10% charcoal treated fetal bovine serum (FBS; Atlanta Biologicals, GA) and 0.2 mM glutamine (Corning, Manassas, VA), whereas MDA-MB-231, DU-145, and Vero were cultured in DMEM with 10% FBS. […] After 24 h incubation in 37 °C under 5% CO2, cells were treated with serially diluted ligands with final DMSO concentration of 1% and incubated for additional 72 h. MTS (CellTiter 96 Aqueous One Solution Cell Proliferation Assays, Promega, Madison, WI) was added to each well 2.5 h prior to recording the absorbance at 490 nm.

MCF-7 = assay: as above; type: cell-based; conditions: Homo sapiens, MCF7, 72 h
Description: as §1, §2, §3

MDA-MB-231 = assay: as above; type: cell-based; conditions: Homo sapiens, 72 h
Description: as §1, §2, §3

KDM6A (UTX) = target: T1, KDM6A (UTX) (Homo sapiens, UniProt O15550); assay: KDM cell-free assay (AlphaScreen, BPS Bioscience); type: biochemical; conditions: for IC50: Fig. 9A, read-out: IC50 (KDM6A inhibition dose response curve)
T1 construct: purchased BPS Bioscience

[1] = Table 5, values calculated by linear regression

T1 sequence (O15550 whole entry): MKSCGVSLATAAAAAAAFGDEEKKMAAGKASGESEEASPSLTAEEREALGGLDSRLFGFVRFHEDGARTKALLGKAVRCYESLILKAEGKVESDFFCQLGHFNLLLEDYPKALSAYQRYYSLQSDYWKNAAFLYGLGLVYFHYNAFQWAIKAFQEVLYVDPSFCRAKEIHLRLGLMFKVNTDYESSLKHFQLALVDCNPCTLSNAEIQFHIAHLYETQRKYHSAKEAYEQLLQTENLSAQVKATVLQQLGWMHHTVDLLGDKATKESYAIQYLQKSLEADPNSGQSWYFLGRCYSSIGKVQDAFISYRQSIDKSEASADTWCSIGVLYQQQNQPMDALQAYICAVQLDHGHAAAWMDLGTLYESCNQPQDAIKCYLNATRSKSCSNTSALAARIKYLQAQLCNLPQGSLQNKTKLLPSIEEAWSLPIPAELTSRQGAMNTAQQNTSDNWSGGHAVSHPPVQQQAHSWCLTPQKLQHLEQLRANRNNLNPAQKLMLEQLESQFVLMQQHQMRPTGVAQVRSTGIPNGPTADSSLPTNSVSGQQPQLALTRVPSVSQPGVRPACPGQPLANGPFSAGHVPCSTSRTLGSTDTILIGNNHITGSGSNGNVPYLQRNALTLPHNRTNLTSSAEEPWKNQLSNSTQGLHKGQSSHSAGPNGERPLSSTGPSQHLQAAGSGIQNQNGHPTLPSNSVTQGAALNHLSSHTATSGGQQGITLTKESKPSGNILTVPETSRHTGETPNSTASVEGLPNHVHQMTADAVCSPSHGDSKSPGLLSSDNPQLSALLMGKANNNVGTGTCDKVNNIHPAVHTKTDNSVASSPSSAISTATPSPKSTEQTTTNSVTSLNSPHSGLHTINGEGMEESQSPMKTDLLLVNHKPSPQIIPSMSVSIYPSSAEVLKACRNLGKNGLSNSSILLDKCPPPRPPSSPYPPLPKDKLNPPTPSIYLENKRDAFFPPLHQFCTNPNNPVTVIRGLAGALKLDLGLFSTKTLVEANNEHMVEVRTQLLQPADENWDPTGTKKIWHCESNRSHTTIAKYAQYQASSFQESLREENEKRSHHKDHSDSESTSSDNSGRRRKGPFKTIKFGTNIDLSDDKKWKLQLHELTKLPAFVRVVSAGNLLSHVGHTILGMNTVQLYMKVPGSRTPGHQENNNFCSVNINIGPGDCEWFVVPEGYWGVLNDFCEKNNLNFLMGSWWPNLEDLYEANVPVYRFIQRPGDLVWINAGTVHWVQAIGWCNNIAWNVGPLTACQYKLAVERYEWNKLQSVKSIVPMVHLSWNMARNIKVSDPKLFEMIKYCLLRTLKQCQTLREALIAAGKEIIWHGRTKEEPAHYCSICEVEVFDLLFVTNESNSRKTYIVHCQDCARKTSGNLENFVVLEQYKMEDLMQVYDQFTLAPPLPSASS

Structure (SMILES) | IC50 (VERO; Table 5) [µM] | IC50 (MDA-MB-231; Table 5) [µM] | inhibition at 1 µM (KDM6A (UTX); Table 2) [%] | inhibition at 10 µM (KDM6A (UTX); Table 2) [%] | IC50 (MCF-7; Table 5) [µM] | further results
Cc1c(O)c(=O)ccn1CCCCCn1ccc(=O)c(O)c1C [3b] |  |  |  |  |  | IC50 (VERO; Table 6): > 50 µM; IC50 (MCF-7; Table 6): > 50 µM; IC50 (MDA-MB-231; Table 6): > 50 µM; inhibition at 1 µM (KDM6A (UTX); Table 3): 1%; inhibition at 10 µM (KDM6A (UTX); Table 3): 99%
COc1cccc(-c2cn(CCCCn3ccc(=O)c(O)c3C)nn2)c1 [2i] | > 50 | 7.5 | 7 | 100 |  | IC50 (MCF-7; [1]): 54.8 µM
Cc1c(O)c(=O)ccn1CCCCCn1cc(-c2ccccn2)nn1 [2s] | > 50 | > 50 | 15 | 99 | > 50 | 
Cc1c(O)c(=O)ccn1CCCCn1ccc(=O)c(O)c1C [3a] |  |  |  |  |  | IC50 (VERO; Table 6): > 50 µM; IC50 (MCF-7; Table 6): > 50 µM; IC50 (MDA-MB-231; Table 6): > 50 µM; inhibition at 1 µM (KDM6A (UTX); Table 3): 4%; inhibition at 10 µM (KDM6A (UTX); Table 3): 100%
COc1ccccc1-c1cn(CCCCn2ccc(=O)c(O)c2C)nn1 [2g] | > 50 | 9.6 |  |  |  | IC50 (MCF-7; [1]): 66.1 µM
Cc1cccc(-c2cn(CCCCn3ccc(=O)c(O)c3C)nn2)c1 [2c] | 5.2 | 10.9 | 4 | 100 |  | IC50 (MCF-7; [1]): 62.7 µM
Cc1c(O)c(=O)ccn1CCCCn1cc(-c2ccc(N(C)C)cc2)nn1 [2q] | > 50 | 9.5 |  |  | > 50 | 
COc1ccccc1-c1cn(CCCCCn2ccc(=O)c(O)c2C)nn1 [2h] | > 50 | 19.1 | 3 | 99 | > 50 | 
Cc1c(O)c(=O)ccn1CCCCCCn1cc(-c2ccccc2)nn1 [1e] |  |  | 12 | 98 |  | IC50 (VERO; Table 4): > 35 µM; IC50 (MCF-7; Table 4): > 50 µM; IC50 (MDA-MB-231; Table 4): 12.5 µM
Cc1cccc(-c2cn(CCCCCn3ccc(=O)c(O)c3C)nn2)c1 [2d] | 3.6 | 11.8 |  |  | > 50 | 
Cc1c(O)c(=O)ccn1CCCCCn1cc(-c2ccc(F)cc2)nn1 [2o] | 38.8 | 3.6 | 10 | 100 | > 50 | 
COc1ccc(-c2cn(CCCCn3ccc(=O)c(O)c3C)nn2)cc1 [2k] | > 50 | 8.1 |  |  | > 50 | 
COc1ccc(-c2cn(CCCCCn3ccc(=O)c(O)c3C)nn2)cc1 [2l] | > 50 | 9.6 | 4 | 100 | > 50 | 
Cc1c(O)c(=O)ccn1CCCCCn1cc(-c2ccccc2F)nn1 [2m] | 12.7 | 18.3 | 16 | 100 | > 50 | 
Cc1c(O)c(=O)ccn1CCCCCn1cc(-c2cccc(F)c2)nn1 [2n] | 22.9 | 6.8 | 5 | 100 | > 50 | 
Cc1ccccc1-c1cn(CCCCn2ccc(=O)c(O)c2C)nn1 [2a] | 11.6 | 16.4 | 6 | 100 |  | IC50 (MCF-7; [1]): 42.5 µM
Cc1c(O)c(=O)ccn1CCCCCn1cc(-c2ccc(N(C)C)cc2)nn1 [2r] | > 50 | 12.5 |  |  | > 50 | 
Cc1c(O)c(=O)ccn1CCCCCCCn1ccc(=O)c(O)c1C [3d] |  |  |  |  |  | IC50 (VERO; Table 6): > 50 µM; IC50 (MCF-7; Table 6): > 50 µM; IC50 (MDA-MB-231; Table 6): > 50 µM; inhibition at 1 µM (KDM6A (UTX); Table 3): 3%; inhibition at 10 µM (KDM6A (UTX); Table 3): 100%
Cc1c(O)c(=O)ccn1CCCCCCn1ccc(=O)c(O)c1C [3c] |  |  |  |  |  | IC50 (VERO; Table 6): > 50 µM; IC50 (MCF-7; Table 6): > 50 µM; IC50 (MDA-MB-231; Table 6): > 50 µM; inhibition at 1 µM (KDM6A (UTX); Table 3): 2%; inhibition at 10 µM (KDM6A (UTX); Table 3): 100%
Cc1ccc(-c2cn(CCCCn3ccc(=O)c(O)c3C)nn2)cc1 [2e] | 4.1 | 7.4 | 13 | 100 | > 50 | 
Cc1c(O)c(=O)ccn1CCCCCCn1cc(-c2ccc(-c3ccncc3)cc2)nn1 [2u] | 66.9 | 1.7 | 15 | 99 | > 50 | IC50 (KDM6A (UTX)): 5.1 µM
Cc1c(O)c(=O)ccn1Cc1ccc(Cn2ccc(=O)c(O)c2C)cc1 [3f] |  |  |  |  |  | IC50 (VERO; Table 6): > 50 µM; IC50 (MCF-7; Table 6, values calculated by linear regression): 378 µM; IC50 (MDA-MB-231; Table 6): 25 µM; inhibition at 1 µM (KDM6A (UTX); Table 3): 5%; inhibition at 10 µM (KDM6A (UTX); Table 3): 100%
Cc1c(O)c(=O)ccn1CCCCCn1cc(-c2ccccc2C(F)(F)F)nn1 [2p] | 13.3 | 18.8 | 15 | 99 | > 50 | 
Cc1ccccc1-c1cn(CCCCCn2ccc(=O)c(O)c2C)nn1 [2b] | 5.8 | 12.7 |  |  | > 50 | 
Cc1c(O)c(=O)ccn1CCCCCn1cc(-c2ccccc2)nn1 [1d] |  |  | 12 | 100 |  | IC50 (VERO; Table 4): > 50 µM; IC50 (MCF-7; Table 4): > 50 µM; IC50 (MDA-MB-231; Table 4): 11.4 µM; IC50 (KDM6A (UTX)): 3.3 µM
Cc1c(O)c(=O)ccn1[C@H]1CC[C@H](n2ccc(=O)c(O)c2C)CC1 [3e] |  |  |  |  |  | IC50 (VERO; Table 6): > 50 µM; IC50 (MCF-7; Table 6): > 50 µM; IC50 (MDA-MB-231; Table 6): 36.9 µM; inhibition at 1 µM (KDM6A (UTX); Table 3): 5%; inhibition at 10 µM (KDM6A (UTX); Table 3): 100%
